Measurements reported in patent US10167262B2, “Herbicidal substituted 3-arylpyrazoles” (FMC CORPORATION, priority 2014, dated 2019).

How the values were obtained:
Format in all cases: in vivo
[1] = test system: sedge, umbrella (small-flower umbrella sedge, Cyperus difformis); test: Test B flooded paddy test, plant response rating 0-100; settings: Flood, 250 g ai/ha; scale 0 to 100 (0 no effect, 100 complete control); 13 to 15 days
Outline: (§1)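 Flooded 3 cm over soil; compound into paddy water; depth kept constant. Greenhouse 13–15 d.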

rice (Oryza sativa) = test: as above; settings: Flood, 250 g ai/ha; scale 0 to 100 (0 no effect, 100 complete control); 13 to 15 days
Outline: as §1

[2] = test system: barnyardgrass (Echinochloa crus-galli); test: as above; settings: Flood, 250 g ai/ha; scale 0 to 100 (0 no effect, 100 complete control); 13 to 15 days
Outline: as §1

[3] = test system: ducksalad (Heteranthera limosa); test: as above; settings: Flood, 250 g ai/ha; scale 0 to 100 (0 no effect, 100 complete control); 13 to 15 days
Outline: as §1

[4] = test system: giant foxtail (Setaria faberii); test: Test A pre-/postemergence greenhouse herbicide test, visual injury rating 0-100
Outline: (§2)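 Each species was treated both before emergence, via soil spray onto a loam–sand blend, and after emergence at the one- to two-leaf stage. Plants stayed in the greenhouse around 10 days before visual injury assessment.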

[5] = test system: barnyardgrass (Echinochloa crus-galli); test: as above
Outline: as §2

[6] = test system: large (Lg) crabgrass (Digitaria sanguinalis); test: as above
Outline: as §2

[7] = test system: wheat (Triticum aestivum); test: as above
Outline: as §2

[8] = test system: pigweed (Amaranthus retroflexus); test: as above
Outline: as §2

[9] = test system: velvetleaf (Abutilon theophrasti); test: as above
Outline: as §2

[10] = test system: morningglory (Ipomoea spp.); test: as above
Outline: as §2

corn (Zea mays) = test: as above
Outline: as §2

For CCn1cc(C(=O)c2cccs2)c(-c2cc(F)cc(Cl)c2)n1 [Compound 24], the “Plant response rating, Sedge, Umbrella” value [1] was 0, the “Plant response rating, Rice” value (rice (Oryza sativa)) was 0 and the “Plant response rating, Barnyardgrass” value [2] was 0. The “Plant response rating, Ducksalad” value [3] was 0, the “Plant response rating (0 to 100 scale), Foxtail, Giant” value ([4]; Postemergence, 125 g ai/ha) was 0 and the “Plant response rating (0 to 100 scale), Foxtail, Giant” value ([4]; Postemergence, 500 g ai/ha) was 10. The “Foxtail, Giant plant response rating (0 = no effect, 100 = complete control)” value ([4]; Preemergence, 125 g ai/ha) was 0, the “Plant response rating (0 to 100 scale), Foxtail, Giant” value ([4]; Preemergence, 500 g ai/ha) was 0 and the “Plant response rating (0 to 100 scale), Barnyardgrass” value ([5]; Postemergence, 125 g ai/ha) was 0. The “Plant response rating (0 to 100 scale), Barnyardgrass” value ([5]; Postemergence, 500 g ai/ha) was 10, the “Barnyardgrass plant response rating (0 = no effect, 100 = complete control)” value ([5]; Preemergence, 125 g ai/ha) was 0 and the “Plant response rating (0 to 100 scale), Barnyardgrass” value ([5]; Preemergence, 500 g ai/ha) was 0. For the same molecule, the “Plant response rating (0 to 100 scale), Crabgrass, Large” value ([6]; Postemergence, 125 g ai/ha) was 10, the “Plant response rating (0 to 100 scale), Crabgrass, Large” value ([6]; Postemergence, 500 g ai/ha) was 20 and the “Crabgrass, Large plant response rating (0 = no effect, 100 = complete control)” value ([6]; Preemergence, 125 g ai/ha) was 0. For the same molecule, the “Plant response rating (0 to 100 scale), Crabgrass, Large” value ([6]; Preemergence, 500 g ai/ha) was 20, the “Plant response rating (0 to 100 scale), Wheat” value ([7]; Postemergence, 125 g ai/ha) was 0 and the “Plant response rating (0 to 100 scale), Wheat” value ([7]; Postemergence, 500 g ai/ha) was 0. For the same molecule, the “Wheat plant response rating (0 = no effect, 100 = complete control)” value ([7]; Preemergence, 125 g ai/ha) was 0, the “Plant response rating (0 to 100 scale), Wheat” value ([7]; Preemergence, 500 g ai/ha) was 0 and the “Plant response rating (0 to 100 scale), Pigweed” value ([8]; Postemergence, 125 g ai/ha) was 80. The “Plant response rating (0 to 100 scale), Pigweed” value ([8]; Postemergence, 500 g ai/ha) was 100, the “Pigweed plant response rating (0 = no effect, 100 = complete control)” value ([8]; Preemergence, 125 g ai/ha) was 60 and the “Plant response rating (0 to 100 scale), Pigweed” value ([8]; Preemergence, 500 g ai/ha) was 80. For the same molecule, the “Plant response rating (0 to 100 scale), Velvetleaf” value ([9]; Postemergence, 125 g ai/ha) was 40, the “Plant response rating (0 to 100 scale), Velvetleaf” value ([9]; Postemergence, 500 g ai/ha) was 90 and the “Velvetleaf plant response rating (0 = no effect, 100 = complete control)” value ([9]; Preemergence, 125 g ai/ha) was 0. For the same molecule, the “Plant response rating (0 to 100 scale), Velvetleaf” value ([9]; Preemergence, 500 g ai/ha) was 0, the “Plant response rating (0 to 100 scale), Morningglory” value ([10]; Postemergence, 125 g ai/ha) was 0 and the “Plant response rating (0 to 100 scale), Morningglory” value ([10]; Postemergence, 500 g ai/ha) was 10. The “Morningglory plant response rating (0 = no effect, 100 = complete control)” value ([10]; Preemergence, 125 g ai/ha) was 0, the “Plant response rating (0 to 100 scale), Morningglory” value ([10]; Preemergence, 500 g ai/ha) was 0 and the “Plant response rating (0 to 100 scale), Corn” value (corn (Zea mays); Postemergence, 125 g ai/ha) was 0. For the same molecule, the “Plant response rating (0 to 100 scale), Corn” value (corn (Zea mays); Postemergence, 500 g ai/ha) was 0, the “Corn plant response rating (0 = no effect, 100 = complete control)” value (corn (Zea mays); Preemergence, 125 g ai/ha) was 0 and the “Plant response rating (0 to 100 scale), Corn” value (corn (Zea mays); Preemergence, 500 g ai/ha) was 0.

CCn1cc(C(=O)c2ccccc2)c(-c2cc(F)cc(Br)c2)n1 [Compound 10] was tested, and the “Plant response rating, Sedge, Umbrella” value [1] was 0, the “Plant response rating, Rice” value (rice (Oryza sativa)) was 0 and the “Plant response rating, Barnyardgrass” value [2] was 0. For the same molecule, the “Plant response rating, Ducksalad” value [3] was 0, the “Plant response rating (0 to 100 scale), Foxtail, Giant” value ([4]; Postemergence, 1000 g ai/ha) was 0 and the “Plant response rating (0 to 100 scale), Foxtail, Giant” value ([4]; Preemergence, 1000 g ai/ha) was 0. For the same molecule, the “Plant response rating (0 to 100 scale), Barnyardgrass” value ([5]; Postemergence, 1000 g ai/ha) was 0, the “Plant response rating (0 to 100 scale), Barnyardgrass” value ([5]; Preemergence, 1000 g ai/ha) was 0 and the “Plant response rating (0 to 100 scale), Crabgrass, Large” value ([6]; Postemergence, 1000 g ai/ha) was 0. For the same molecule, the “Plant response rating (0 to 100 scale), Crabgrass, Large” value ([6]; Preemergence, 1000 g ai/ha) was 0, the “Plant response rating (0 to 100 scale), Wheat” value ([7]; Postemergence, 1000 g ai/ha) was 0 and the “Plant response rating (0 to 100 scale), Wheat” value ([7]; Preemergence, 1000 g ai/ha) was 0. For the same molecule, the “Plant response rating (0 to 100 scale), Pigweed” value ([8]; Postemergence, 1000 g ai/ha) was 90, the “Plant response rating (0 to 100 scale), Pigweed” value ([8]; Preemergence, 1000 g ai/ha) was 100 and the “Plant response rating (0 to 100 scale), Velvetleaf” value ([9]; Postemergence, 1000 g ai/ha) was 90. For the same molecule, the “Plant response rating (0 to 100 scale), Velvetleaf” value ([9]; Preemergence, 1000 g ai/ha) was 90, the “Plant response rating (0 to 100 scale), Morningglory” value ([10]; Postemergence, 1000 g ai/ha) was 0 and the “Plant response rating (0 to 100 scale), Morningglory” value ([10]; Preemergence, 1000 g ai/ha) was 0. For the same molecule, the “Plant response rating (0 to 100 scale), Corn” value (corn (Zea mays); Postemergence, 1000 g ai/ha) was 0 and the “Plant response rating (0 to 100 scale), Corn” value (corn (Zea mays); Preemergence, 1000 g ai/ha) was 0.

With O=C(c1ccccc1)c1cn(C(=O)Cc2ccccc2)nc1-c1cc(Cl)cc(Cl)c1 [Compound 4] the “Plant response rating, Sedge, Umbrella” value [1] was 0, the “Plant response rating, Rice” value (rice (Oryza sativa)) was 0 and the “Plant response rating, Barnyardgrass” value [2] was 0. The “Plant response rating, Ducksalad” value [3] was 0, the “Plant response rating (0 to 100 scale), Foxtail, Giant” value ([4]; Postemergence, 125 g ai/ha) was 0 and the “Plant response rating (0 to 100 scale), Foxtail, Giant” value ([4]; Postemergence, 500 g ai/ha) was 10. For the same molecule, the “Foxtail, Giant plant response rating (0 = no effect, 100 = complete control)” value ([4]; Preemergence, 125 g ai/ha) was 0, the “Plant response rating (0 to 100 scale), Foxtail, Giant” value ([4]; Preemergence, 500 g ai/ha) was 30 and the “Plant response rating (0 to 100 scale), Barnyardgrass” value ([5]; Postemergence, 125 g ai/ha) was 0. The “Plant response rating (0 to 100 scale), Barnyardgrass” value ([5]; Postemergence, 500 g ai/ha) was 0, the “Barnyardgrass plant response rating (0 = no effect, 100 = complete control)” value ([5]; Preemergence, 125 g ai/ha) was 0 and the “Plant response rating (0 to 100 scale), Barnyardgrass” value ([5]; Preemergence, 500 g ai/ha) was 0. For the same molecule, the “Plant response rating (0 to 100 scale), Crabgrass, Large” value ([6]; Postemergence, 125 g ai/ha) was 0, the “Plant response rating (0 to 100 scale), Crabgrass, Large” value ([6]; Postemergence, 500 g ai/ha) was 0 and the “Crabgrass, Large plant response rating (0 = no effect, 100 = complete control)” value ([6]; Preemergence, 125 g ai/ha) was 0. The “Plant response rating (0 to 100 scale), Crabgrass, Large” value ([6]; Preemergence, 500 g ai/ha) was 20, the “Plant response rating (0 to 100 scale), Wheat” value ([7]; Postemergence, 125 g ai/ha) was 0 and the “Plant response rating (0 to 100 scale), Wheat” value ([7]; Postemergence, 500 g ai/ha) was 0. For the same molecule, the “Wheat plant response rating (0 = no effect, 100 = complete control)” value ([7]; Preemergence, 125 g ai/ha) was 0, the “Plant response rating (0 to 100 scale), Wheat” value ([7]; Preemergence, 500 g ai/ha) was 0 and the “Plant response rating (0 to 100 scale), Pigweed” value ([8]; Postemergence, 125 g ai/ha) was 70. For the same molecule, the “Plant response rating (0 to 100 scale), Pigweed” value ([8]; Postemergence, 500 g ai/ha) was 80, the “Pigweed plant response rating (0 = no effect, 100 = complete control)” value ([8]; Preemergence, 125 g ai/ha) was 80 and the “Plant response rating (0 to 100 scale), Pigweed” value ([8]; Preemergence, 500 g ai/ha) was 90. The “Plant response rating (0 to 100 scale), Velvetleaf” value ([9]; Postemergence, 125 g ai/ha) was 80, the “Plant response rating (0 to 100 scale), Velvetleaf” value ([9]; Postemergence, 500 g ai/ha) was 90 and the “Velvetleaf plant response rating (0 = no effect, 100 = complete control)” value ([9]; Preemergence, 125 g ai/ha) was 70. For the same molecule, the “Plant response rating (0 to 100 scale), Velvetleaf” value ([9]; Preemergence, 500 g ai/ha) was 90, the “Plant response rating (0 to 100 scale), Morningglory” value ([10]; Postemergence, 125 g ai/ha) was 0 and the “Plant response rating (0 to 100 scale), Morningglory” value ([10]; Postemergence, 500 g ai/ha) was 0. For the same molecule, the “Morningglory plant response rating (0 = no effect, 100 = complete control)” value ([10]; Preemergence, 125 g ai/ha) was 0, the “Plant response rating (0 to 100 scale), Morningglory” value ([10]; Preemergence, 500 g ai/ha) was 0 and the “Plant response rating (0 to 100 scale), Corn” value (corn (Zea mays); Postemergence, 125 g ai/ha) was 0. For the same molecule, the “Plant response rating (0 to 100 scale), Corn” value (corn (Zea mays); Postemergence, 500 g ai/ha) was 0, the “Corn plant response rating (0 = no effect, 100 = complete control)” value (corn (Zea mays); Preemergence, 125 g ai/ha) was 0 and the “Plant response rating (0 to 100 scale), Corn” value (corn (Zea mays); Preemergence, 500 g ai/ha) was 0.
